Laboratory results as given in patent US20230044602A1, “CANCER SIGNATURES, METHODS OF GENERATING CANCER SIGNATURES, AND USES THEREOF” (EDWARD VIA COLLEGE OF OSTEOPATHIC MEDICINE, priority 2019, published 2023).

Experiments:
NSCLC and GBM = settings: Refs. 83-85; cited from earlier work
GBM patients = experiment: Disease-free survival of PGS-stratified TCGA GBM patients treated with or without TMZ; type: in vivo, human; settings: TCGA training cohort
Procedure: Clinical data on adjuvant chemotherapy (ACT) or TMZ administration for the TOGA training cohorts were retrieved from the NCI GDC data portal, and the Buffa hypoxia scores for each patient were retrieved from TOGA PanCancer Atlas through cBioPortal (Ref. 54). Differences in patient benefit from treatment across risk groups were assessed using one-tailed two-sample t-tests on unequal variances and Fisher's Exact Tests. Two-tailed two-sample t-tests on unequal variances assessed the correlation of PGS risk stratification with tumor hypoxia in NSCLC.

[1] = Refs. 3 and 11; cited from earlier work

| Structure (SMILES) | efficacy in treating NSCLC and GBM (NSCLC and GBM) | average DFS time (GBM patients; high-risk progression GBM patients (GBM-PGS) treated with TMZ) [months] | average DFS time (GBM patients; low-risk progression GBM patients (GBM-PGS) treated with TMZ) [months] | penetration through the blood-brain barrier [1] |
| --- | --- | --- | --- | --- |
| Cc1cc(Nc2nc(N[C@@H](C)c3ncc(F)cn3)ncc2Cl)n[nH]1 [AZD1480] | promising efficacy |  |  |  |
| NS(=O)(=O)c1cccc2c1C(=O)c1cccc(O)c1C2=O [LLL12] | promising efficacy |  |  |  |
| Cn1nnc2c(C(N)=O)ncn2c1=O [TMZ, Temozolomide] |  | 10.80 | 16.52 | efficient penetration |
